Structures can show the parent of a compound that is named as a salt. Where two headings read alike, the source gives them in different places. Where only a bound is given, the exact number is not on record here.

Here are results for 19 molecules from patent US20220127232A1, “HISTONE ACETYLTRANSFERASE MODULATORS AND COMPOSITIONS AND USES THEREOF” (The Trustees of Columbia University in the City of New York, priority 2019, published 2022).

One data set concerns the target p300 (Homo sapiens, UniProt Q09472). Kind of data set: Histone Acetyltransferase (HAT) in vitro acetylation assay, western blot of H3K27ac / H3K18ac. The class given is biochemical. The following applies: for H3-Lys 18 EC50 / EC50 / H3-Lys 27 EC50: EC50 for activators; for H3-Lys 18 IC50 / H3-Lys 27 IC50: IC50 for inhibitors. Here is the method: The aim of the in vitro acetylation assay is to measure the enzymatic activity of the various compounds towards p300.
First, the drug is prepared:
Second, dilute p300 in AM1 buffer to a concentration of 40 ng/μL (final concentration in the reaction 20 ng/μL). This is accomplished by diluting 1 μL of p300 (at 0.4 μg/μL) into […] of AM1 buffer.
Third, prepare the Master Mix. Prepare the Master Mix in low protein binding tubes (ThermoFisher Cat. No. 90410), 20 μL system.
Incubate reactions at 30° C. for 30 minutes.
Incubate reactions at 30° C. for 1 hour.
Fourth, perform the western blot assay. • Add 6.7 μL of Laemmli Sample Buffer 4× (Bio-Rad Laboratories Cat. No. 161-0737) for each reaction and boil samples at 95° C. for 5 min. • Charge 10 μL for each sample in 2 Tris Glycine 4-15% gels (Bio-Rad Laboratories Cat. No. 456-1086). Running Buffer: Tris-Glycine 1× (pour in the cell up to the writing “2 gels”). • Run at 90 V for 1 hour (until the gel front reaches the green line of cell). • Semi-dry transfer with Trans-Blot® Turbo™ Blotting System from Bio-Rad Laboratories (Trans-Blot® Turbo™ RTA midi PVDF transfer kit Cat. No1704275). • Activate PVDF membrane in methanol for 5 minutes and then wet in Trans-Blot® Turbo™ transfer buffer. • Wet stacks in transfer buffer. • Transfer at 23 V 1.3 A for 7 minutes. • Blocking buffer: 5% Non-Fat milk in TBST (tween 0.1%) 1 hour at room temperature. • Cut the membranes to get Ac-His 3 at 17 kDa and p300 at 300 kDa. • Incubate with primary antibodies overnight at 4° C. • The day after, make 3 washes in TBST (Tween 0.1%) of 10 minutes. • Incubate with secondary antibody at room temperature for 1 hour. • Make 3 washes in TBST (Tween 0.1%) of 5 minutes. • Incubate membranes with ECL (SuperSignal West Dura Extended Duration Substrate from ThermoFisher) for 5 minutes at room temperature. • Acquire the image with ChemiDoc Odyssey Fc 2 minutes.
To detect total H3 (loading control), strip the membranes with Restore™ Western Blot Stripping Buffer according to the manufacturer protocol.
Various compounds were tested for enzymatic activity with respect to Lys 18 and Lys 27. EC50 is indicated for Activators and IC50 for inhibitors respectively.
FIGS. 1A to 25B are graphs showing the lysine residue acetylation as a function of concentration for the compounds set forth in Table 3. The shaded area corresponds to the average values of lysine residue acetylation (continuous line) and their standard error range measured in the absence of compound and DMSO. The number of replicates is represented by “n”.

Data set [1] in a line: Stability in human liver microsomes. The class given is in vitro ADME. The following applies: for microsomal CLint at 1 μM / half-life at 1 μM: both sexes, human, liver microsomes, pH 7.4, human liver microsomes. Here is the method:
Some compounds were tested for stability in human liver microsomes as shown below in Table 2.
Mixed-gender human liver microsomes (Lot #1010420) were purchased from XenoTech. The reaction mixture, minus NADPH, was prepared as described below. The test article was added into the reaction mixture at a final concentration of 1 μM. The control compound, testosterone, was run simultaneously with the test article in a separate reaction. An aliquot of the reaction mixture (without cofactor) was equilibrated in a shaking water bath at 37° C. for 3 minutes. The reaction was initiated by the addition of the cofactor, and the mixture was incubated in a shaking water bath at 37° C. Aliquots (100 μL) were withdrawn at 0, 10, 20, 30, and 60 minutes. Test article and testosterone samples were immediately combined with 400 μL of ice-cold 50/50 acetonitrile (ACN)/H2O containing 0.1% formic acid and internal standard to terminate the reaction. The samples were then mixed and centrifuged to precipitate proteins. All samples were assayed by LC-MS/MS using electrospray ionization. Analytical conditions are outlined in Appendix 1. The peak area response ratio (PARR) to internal standard was compared to the PARR at time 0 to determine the percent remaining at each time point. Half-lives and clearance were calculated using GraphPad software, fitting to a single-phase exponential decay equation.
Liver Microsomes 0.5 mg/mL NADPH (cofactor) 1 mM
Potassium Phosphate, pH 7.4 100 mM
Intrinsic clearance (CLint) was calculated based on CLint=k/P, where k is the elimination constant and P is the protein concentration in the incubation.
On the technique in general: Liver microsomes are vesicles of endoplasmic reticulum, rich in cytochrome P450 enzymes.

Where [2] appears, read: compound in DMSO, read-out: H3-Lys 27 EC50.
The mark [3] stands for this setting: compound in DMSO, read-out: H3-Lys 18 EC50.

Sequence of p300 (Q09472 whole entry, species assumed): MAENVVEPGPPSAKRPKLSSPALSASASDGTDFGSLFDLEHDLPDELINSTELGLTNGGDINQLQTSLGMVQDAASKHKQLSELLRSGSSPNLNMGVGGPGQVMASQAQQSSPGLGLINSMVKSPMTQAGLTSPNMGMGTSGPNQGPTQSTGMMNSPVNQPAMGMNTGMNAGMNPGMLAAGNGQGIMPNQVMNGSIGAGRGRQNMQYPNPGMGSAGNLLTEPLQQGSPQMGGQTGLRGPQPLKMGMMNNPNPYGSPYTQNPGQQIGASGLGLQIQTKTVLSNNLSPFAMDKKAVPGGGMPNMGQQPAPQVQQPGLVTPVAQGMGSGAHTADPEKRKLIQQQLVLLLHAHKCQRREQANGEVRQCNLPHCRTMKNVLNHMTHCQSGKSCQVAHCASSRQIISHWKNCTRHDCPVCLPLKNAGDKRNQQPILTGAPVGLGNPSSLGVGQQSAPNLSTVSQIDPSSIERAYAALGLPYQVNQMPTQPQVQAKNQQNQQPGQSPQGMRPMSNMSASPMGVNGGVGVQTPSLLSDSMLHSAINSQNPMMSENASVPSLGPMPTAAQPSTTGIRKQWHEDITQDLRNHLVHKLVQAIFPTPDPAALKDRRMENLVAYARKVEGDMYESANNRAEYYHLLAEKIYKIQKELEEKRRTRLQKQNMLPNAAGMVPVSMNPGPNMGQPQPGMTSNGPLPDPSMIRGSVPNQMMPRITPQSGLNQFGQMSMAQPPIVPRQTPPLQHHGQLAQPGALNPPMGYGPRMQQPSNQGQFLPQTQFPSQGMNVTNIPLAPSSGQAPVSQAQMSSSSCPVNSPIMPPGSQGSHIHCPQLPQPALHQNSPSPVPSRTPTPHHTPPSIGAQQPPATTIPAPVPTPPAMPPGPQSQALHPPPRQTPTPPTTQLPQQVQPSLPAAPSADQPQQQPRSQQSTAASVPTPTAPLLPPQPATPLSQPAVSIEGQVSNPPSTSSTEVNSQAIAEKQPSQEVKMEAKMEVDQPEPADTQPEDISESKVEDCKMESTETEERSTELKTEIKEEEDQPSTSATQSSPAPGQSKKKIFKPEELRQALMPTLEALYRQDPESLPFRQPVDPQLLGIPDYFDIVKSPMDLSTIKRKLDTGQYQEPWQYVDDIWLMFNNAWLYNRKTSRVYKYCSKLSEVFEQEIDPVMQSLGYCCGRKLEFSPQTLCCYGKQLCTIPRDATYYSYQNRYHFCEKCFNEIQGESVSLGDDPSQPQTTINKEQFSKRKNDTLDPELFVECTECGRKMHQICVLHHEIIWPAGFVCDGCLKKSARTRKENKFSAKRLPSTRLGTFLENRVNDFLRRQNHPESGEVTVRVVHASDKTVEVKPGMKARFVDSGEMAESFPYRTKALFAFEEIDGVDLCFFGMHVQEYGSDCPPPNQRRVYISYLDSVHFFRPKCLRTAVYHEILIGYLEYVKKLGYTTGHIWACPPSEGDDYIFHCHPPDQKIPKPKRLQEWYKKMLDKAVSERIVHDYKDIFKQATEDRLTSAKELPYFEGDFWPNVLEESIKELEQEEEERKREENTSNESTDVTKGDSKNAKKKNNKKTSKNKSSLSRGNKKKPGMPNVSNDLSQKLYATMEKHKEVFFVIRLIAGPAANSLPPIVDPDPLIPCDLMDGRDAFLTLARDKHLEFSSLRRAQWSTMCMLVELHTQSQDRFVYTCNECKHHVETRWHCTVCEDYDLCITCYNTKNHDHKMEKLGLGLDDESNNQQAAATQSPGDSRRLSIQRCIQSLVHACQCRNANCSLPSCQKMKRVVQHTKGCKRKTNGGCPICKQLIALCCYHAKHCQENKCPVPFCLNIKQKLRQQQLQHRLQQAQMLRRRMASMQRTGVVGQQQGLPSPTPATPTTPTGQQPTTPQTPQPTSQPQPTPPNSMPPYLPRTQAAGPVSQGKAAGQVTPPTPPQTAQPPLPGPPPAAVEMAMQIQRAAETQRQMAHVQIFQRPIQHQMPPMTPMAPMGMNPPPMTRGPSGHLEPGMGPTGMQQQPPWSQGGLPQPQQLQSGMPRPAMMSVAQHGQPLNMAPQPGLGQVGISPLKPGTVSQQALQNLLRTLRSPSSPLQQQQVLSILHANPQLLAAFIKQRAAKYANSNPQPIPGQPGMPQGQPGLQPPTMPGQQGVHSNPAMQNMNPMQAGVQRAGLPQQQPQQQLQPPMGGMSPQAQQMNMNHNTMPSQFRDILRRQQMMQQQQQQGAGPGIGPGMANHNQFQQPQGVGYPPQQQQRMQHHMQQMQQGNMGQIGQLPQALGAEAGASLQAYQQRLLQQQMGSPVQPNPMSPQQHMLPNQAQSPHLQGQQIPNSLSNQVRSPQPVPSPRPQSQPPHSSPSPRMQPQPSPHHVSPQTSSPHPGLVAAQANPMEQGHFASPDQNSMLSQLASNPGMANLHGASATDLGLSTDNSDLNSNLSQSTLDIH

For the molecule `CCOc1cccc(OCCN(C)C)c1C(=O)Nc1ccc(Cl)cn1` [RA013917], the “H3-Lys 18 EC50” value on p300 (compound in DMSO) was “NO ACTIVITY”. Besides, the EC50 on p300 (setting [2]) was 15.9 nM.

Turning to `CCCOc1cccc(O)c1C(=O)Nc1ccc(Cl)c(C(F)(F)F)c1` [RA013931], at p300 (compound in DMSO), the “H3-Lys 18 EC50” value was “NO ACTIVITY”, the “H3-Lys 27 EC50” value is given as “NO ACTIVITY”, the “H3-Lys 18 IC50” value is given as “NO ACTIVITY” and the “H3-Lys 27 IC50” value is given as “NO ACTIVITY”.

With `CCOc1cccc(OCCNC)c1C(=O)Nc1ccc(Cl)c(C(F)(F)F)c1` [RA013894], on p300 (compound in DMSO), the “H3-Lys 18 EC50” value was “NO ACTIVITY”, the “H3-Lys 27 EC50” value is recorded as “NO ACTIVITY”, the “H3-Lys 18 IC50” value is recorded as “NO ACTIVITY” and the “H3-Lys 27 IC50” value is “NO ACTIVITY”.

In the case of `CN(C)CCOc1cccc(F)c1C(=O)Nc1ccc(Cl)c(C(F)(F)F)c1` [RA010162], on p300 (compound in DMSO), the “H3-Lys 18 EC50” value is “NO ACTIVITY”, the “H3-Lys 27 EC50” value is recorded as “NO ACTIVITY”, the “H3-Lys 18 IC50” value is listed as “NO ACTIVITY” and the “H3-Lys 27 IC50” value was “NO ACTIVITY”.

On to `CCOc1cccc(O)c1C(=O)Nc1cccc(C(F)(F)F)c1` [RA010160], for which the EC50 is 146 nM on p300 (setting [3]) and 533 nM on p300 (setting [2]).

As for `CCOc1cccc(OCCOC)c1C(=O)Nc1ccc(Cl)c(C(F)(F)F)c1` [RA010155], on p300 (compound in DMSO), the “H3-Lys 27 EC50” value is listed as “NO ACTIVITY” and the “H3-Lys 27 IC50” value is listed as “NO ACTIVITY”. Further, the EC50 at p300 (setting [3]) came to 129 nM.

`CCOc1cccc(OCCO)c1C(=O)Nc1ccc(Cl)c(C(F)(F)F)c1` [RA010146]: at p300 (compound in DMSO), the “H3-Lys 18 EC50” value is “NO ACTIVITY”, the “H3-Lys 27 EC50” value was “NO ACTIVITY”, the “H3-Lys 18 IC50” value was “NO ACTIVITY” and the “H3-Lys 27 IC50” value was “NO ACTIVITY”.

Regarding `COc1cccc(OCCN(C)C)c1C(=O)Nc1ccc(Cl)c(C(F)(F)F)c1` [RA010900 HCl], on p300 (compound in DMSO), the “H3-Lys 18 EC50” value is “NO ACTIVITY”, the “H3-Lys 27 EC50” value is “NO ACTIVITY”, the “H3-Lys 18 IC50” value was “NO ACTIVITY” and the “H3-Lys 27 IC50” value is “NO ACTIVITY”. Also, on p300 (compound in H2O, read-out: H3-Lys 18 EC50), the EC50 is 117 nM. At p300 (compound in H2O, read-out: H3-Lys 27 EC50), the EC50 was 44 nM.

In the case of `CC(C)Oc1cccc(OCCN(C)C)c1C(=O)Nc1ccc(Cl)c(C(F)(F)F)c1` [RA010143 HCl], at p300 (compound in DMSO), the “H3-Lys 27 EC50” value is reported as “NO ACTIVITY” and the “H3-Lys 27 IC50” value is on record as “NO ACTIVITY”.

For the molecule `CCOc1cccc(N(C)CCN(C)C)c1C(=O)Nc1ccc(Cl)c(C(F)(F)F)c1` [RA010163], at p300 (compound in DMSO), the “H3-Lys 18 EC50” value is listed as “NO ACTIVITY”, the “H3-Lys 27 EC50” value was “NO ACTIVITY”, the “H3-Lys 18 IC50” value was “NO ACTIVITY” and the “H3-Lys 27 IC50” value is reported as “NO ACTIVITY”.

Take `CCOc1cccc(OCCN(C)C)c1NC(=O)c1ccc(Cl)c(C(F)(F)F)c1` [RA013919]: on p300 (compound in DMSO), the “H3-Lys 27 EC50” value was “NO ACTIVITY” and the “H3-Lys 27 IC50” value is listed as “NO ACTIVITY”.

For the molecule `CCCOc1cccc(OCCN(C)C)c1C(=O)Nc1ccc(Cl)c(C(F)(F)F)c1` [RA013938], at p300 (compound in DMSO), the “H3-Lys 18 EC50” value is recorded as “NO ACTIVITY”, the “H3-Lys 27 EC50” value is on record as “NO ACTIVITY”, the “H3-Lys 18 IC50” value is given as “NO ACTIVITY” and the “H3-Lys 27 IC50” value is reported as “NO ACTIVITY”.

Turning to `CN(C)CCOc1cccc(O)c1C(=O)Nc1ccc(Cl)c(C(F)(F)F)c1` [RA013905], at p300 (compound in DMSO), the “H3-Lys 18 EC50” value is listed as “NO ACTIVITY”, the “H3-Lys 27 EC50” value was “NO ACTIVITY”, the “H3-Lys 18 IC50” value is “NO ACTIVITY” and the “H3-Lys 27 IC50” value was “NO ACTIVITY”.

As to `CCOc1cccc(OCCN(C)C)c1C(=O)Nc1cccc(C(F)(F)F)c1` [RA010168], at p300 (compound in DMSO), the “H3-Lys 27 EC50” value is recorded as “NO ACTIVITY” and the “H3-Lys 27 IC50” value is “NO ACTIVITY”.

`CCOc1cccc(OCCN(C)C)c1-c1nc2cc(Cl)c(C(F)(F)F)cc2[nH]1` [RA013012]: on p300 (compound in DMSO), the “H3-Lys 18 EC50” value was “NO ACTIVITY”, the “H3-Lys 27 EC50” value is given as “NO ACTIVITY”, the “H3-Lys 18 IC50” value is given as “NO ACTIVITY” and the “H3-Lys 27 IC50” value is listed as “NO ACTIVITY”.

With `CCOc1cccc(OCCN(C)C)c1C(=O)Nc1cccc(C(F)(F)F)c1` [RA013928], on p300 (compound in DMSO), the “H3-Lys 18 EC50” value is given as “NO ACTIVITY” and the “H3-Lys 18 IC50” value is recorded as “NO ACTIVITY”.

With `CCOc1ccnc(OCCN(C)C)c1C(=O)Nc1ccc(Cl)c(C(F)(F)F)c1` [RA013005], the EC50 amounted to 76.5 nM on p300 (setting [3]) and 594 nM on p300 (setting [2]). For the same molecule, the microsomal CLint at 1 μM was 188 µL/min/mg in data set [1] (calculated value printed in parentheses behind the bound, read-out: CLint, value in parentheses) and greater than 139 µL/min/mg in data set [1] (read-out: CLint). Also, the half-life at 1 μM in data set [1] (fitted value printed in parentheses behind the bound, read-out: Half-life, value in parentheses) was 7.36 min; in data set [1] (read-out: Half-life), less than 10 min. The “% Remaining of Initial (n = 1) 0 min” value in data set [1] (human liver microsomes, test article 1 μM, 0 min) was 100%. The “% Remaining of Initial (n = 1) 10 min” value in data set [1] (human liver microsomes, test article 1 μM, 10 min) is listed as 40.5%. Besides, in data set [1] (human liver microsomes, test article 1 μM, 20 min), the “% Remaining of Initial (n = 1) 20 min” value was determined as 14.1%. For the same molecule, the “% Remaining of Initial (n = 1) 30 min” value in data set [1] (human liver microsomes, test article 1 μM, 30 min) is reported as 4.97%. Besides, in data set [1] (human liver microsomes, test article 1 μM, 60 min), the “% Remaining of Initial (n = 1) 60 min” value is listed as less than 1.00%.

In the case of `CCOc1cccc(OCC)c1C(=O)Nc1ccc(Cl)c(C(F)(F)F)c1` [RA010171], the half-maximal effective concentration (EC50) on p300 (setting [3]) amounted to 141 nM.

Consider `CCOc1ccccc1C(=O)N(CCN(C)C)c1ccc(Cl)c(C(F)(F)F)c1` [RA013886], for which, at p300 (compound in DMSO), the “H3-Lys 18 EC50” value is on record as “NO ACTIVITY”, the “H3-Lys 27 EC50” value is on record as “NO ACTIVITY”, the “H3-Lys 18 IC50” value is recorded as “NO ACTIVITY” and the “H3-Lys 27 IC50” value was “NO ACTIVITY”.

In general, EC50 refers to the concentration that produces a half-maximal response. What is called half-life is how long it takes for the measured level to halve.
